The assay has as its system Bacillus anthracis NNR1Δ1 spores. The class given is cell-based.

Consider 4 molecules from patent US8080404B1, “Enzymatic decontamination” (priority 2005, dated 2011).

Regarding `CCCCCCCCCCCC[N+](C)(C)CCCS(=O)(=O)[O-]` [3-(dodecyldimethylamino) propane sulfonate], the “promotion of spore killing by zwitterionic surfactant” value is “most efficient at promoting spore killing”.

In the case of `CC(=O)O` [acetic acid], the “kill rate with acetyl donor” value is given as “enhanced the kill rate to about the same degree as did 0.125% acetylsalicylic acid”.

Turning to `CC(=O)Oc1ccccc1C(=O)O` [acetylsalicylic acid], the “efficiency of spore killing with acetyl donor” value is reported as “increasing concentrations of acetylsalicylic acid resulted in increased efficiency of spore killing”.

Regarding octyl phenol ethoxylate [triton X-100], the “spore kill efficiency with surfactant” value is on record as “most efficient formulation for spore inactivation”.
